According to patent publication US9988377B2, “Small molecule inducers of GDNF as potential new therapeutics for neuropsychiatric disorders” (THE TRUSTEES OF COLUMBIA UNIVERSITY IN THE CITY OF NEW YORK, priority 2011, dated 2018):

System: GDNF release by C6 glioma cells
Assay: GDNF release by conventional ELISA in conditioned media of C6 glioma cells
Assay type: cell-based
Settings: 10 μM compound, 48 h, 0.1% DMSO vehicle, representative experiment
Excerpt: Conventional ELISAs were used to determine compound-induced increases of GDNF concentration in conditioned media of C6 glioma cells, and have afforded increased sensitivity compared to in-situ ELISA in our hands. C6 cells were purchased from ATCC (Manassas, Va.) at passage 37 and were used between passages 41-46. This requirement for a narrow range of passages is based on an observed decrease in magnitude of GDNF release with age of the cell line, and is consistent with reported behavior of C6 cells. All incubations were conducted at 37° C. in a humidified atmosphere containing 5% CO2. GDNF release was measured for each compound in 3 independent experiments. Briefly, C6 cells were seeded into sterile 12-well culture plates (Falcon) at a density of 300,000 cells per well and were recovered for 24 h in 1mL complete growth medium (94% high glucose DMEM, 5% FBS, 1% penicillin/streptomycin). Wells were then washed with 1mL sterile DPBS and were incubated for an additional 24 h with 0.5 mL low-serum medium (98.5% high glucose DMEM, 0.5% FBS, 1% penicillin/streptomycin). On the following day, experimental compounds or DMSO vehicle control were added each to duplicate wells in an additional 0.5 mL of low-serum medium. The final concentration of each compound was 10 μM in 1mL low-serum medium containing 0.1% DMSO. Plates were incubated with compounds and vehicle control for 48 h. Conditioned media were then collected from each well and GDNF concentrations were measured in triplicate on 96-well ELISA plates using the GDNF Emax Immunoassay System from Promega (Madison, Wis.) according to the manufacturer's instructions. A Bio-Tek H1MF plate reader (Burlington, Vt.) was used to measure absorbance from the resulting colorimetric reaction. Total GDNF release for each compound was calculated from the standard curve using Microsoft Excel. Data are normalized to the vehicle control and are thus presented as fold increase of GDNF concentration in experimental wells over that of the vehicle control. Each reported compound afforded a statistically significant increase of GDNF release over the DMSO control in each of three independent experiments conducted on separate days unless otherwise noted. Statistical significance within each experiment was determined by ANOVA followed by Tukey's post-hoc analysis using GraphPad Prism. Because of the naturally high variability of GDNF release values between experiments, data presented herein are intra-assay means from a representative experiment ±intra-assay standard error of the mean (SEM) calculated from biological replicates. Cytotoxicity for each compound was below 20% as measured by LDH levels in conditioned media (Cytotox 96, Promega).
All results (Table 2) represent fold-increase of GDNF release by C6 glioma cells treated with the indicated compound for 48 hours, normalized to the vehicle control. Results are presented from a representative experiment and were determined to be statistically significant (ANOVA) compared to the vehicle control.

“6-ethyl-2-(2-(5-fluoro-1H-indol-3-yl)ethyl)-2-azabicyclo[2.2.2]oct-5-ene [Compound 91]” and `C1=CC2C(Cc3ccccc3)CC1CN2CCc1c[nH]c2ccccc12` (racemic) [Compound 77, exo-2-(2-(1H-indol-3-yl)ethyl)-7-benzyl-2-azabicyclo[2.2.2]oct-5-ene] are within error of each other in “GDNF Increase ± SEM (fold/vehicle control)” value: 13.61 ± 0.62 fold/vehicle control for the first, 13.22 ± 0.08 fold/vehicle control for the second.

Going from `CCCC1CC2C=CC1N(CCc1c[nH]c3ccc(F)cc13)C2` (racemic) [Compound 78, endo-2-(2-(5-fluoro-1H-indol-3-yl)ethyl)-7-propyl-2-azabicyclo[2.2.2]oct-5-ene] to `CCCCC1CC2C=CC1N(CCc1c[nH]c3ccccc13)C2` (racemic) [Compound 84, exo-2-(2-(1H-indol-3-yl)ethyl)-7-butyl-2-azabicyclo[2.2.2]oct-5-ene], the “GDNF Increase ± SEM (fold/vehicle control)” value falls from 14.39 ± 0.51 fold/vehicle control to 12.65 ± 0.66 fold/vehicle control.

Same assay, conditions: C6 glioma, 48 h, 10 μM compound, 0.1% DMSO vehicle, representative experiment, read-out: GDNF Increase ± SEM (fold/vehicle control)

Going from `CCC1CC2C=CC1N(CCc1c[nH]c3c(F)cccc13)C2` (racemic) [Compound 69, exo-7-ethyl-2-(2-(7-fluoro-1H-indol-3-yl)ethyl)-2-azabicyclo [2.2.2]oct-5-ene] to `CCC1CC2C=CC1N(CCc1c[nH]c3cccc(F)c13)C2` (racemic) [Compound 70, exo-7-ethyl-2-(2-(4-fluoro-1H-indol-3-yl)ethyl)-2-azabicyclo[2.2.2]oct-5-ene], the fold induction at 10 µM rises from 12.13 ± 0.01 to 15.8 ± 0.65.

`CCC1CC2C=CC1N(CCc1c[nH]c3cc(F)ccc13)C2` (racemic) [Compound 71, exo-7-ethyl-2-(2-(6-fluoro-1H-indol-3-yl)ethyl)-2-azabicyclo[2.2.2]oct-5-ene] and `CCC1CC2C=CC1N(CCc1c[nH]c3ccc(F)cc13)C2` (racemic) [Compound 72, exo-7-ethyl-2-(2-(5-fluoro-1H-indol-3-yl)ethyl)-2-azabicyclo[2.2.2]oct-5-ene] are within error of each other in fold induction at 10 µM: 16.5 ± 0.3 for the first, 16.2 ± 0.41 for the second.

First: CCC1CC2C=CC1N(CCc1csc3ccccc13)C2 (racemic) [Compound 73, exo-2-(2-(benzo[b]thiophen-3-yl)ethyl)-7-ethyl-2-azabicyclo[2.2.2]oct-5-ene]
Second: CCCC1CC2C=CC1N(CCc1c[nH]c3ccccc13)C2 (racemic) [Compound 75, endo-2-(2-(1H-indol-3-yl)ethyl)-7-propyl-2-azabicyclo [2.2.2]oct-5-ene]
The fold induction at 10 µM of the first is lower: 9.87 ± 0.22 for the first, 14.8 ± 0.85 for the second.

`C1=CC2C(Cc3ccccc3)CC1CN2CCc1c[nH]c2ccccc12` (racemic) [Compound 76, endo-2-(2-(1H-indol-3-yl)ethyl)-7-benzyl-2-azabicyclo[2.2.2]oct-5-ene] and `Fc1ccc2[nH]cc(CCN3CC4C=CC3C(Cc3ccccc3)C4)c2c1` (racemic) [Compound 85, exo-7-benzyl-2-(2-(5-fluoro-1H-indol-3-yl)ethyl)-2-azabicyclo[2.2.2]oct-5-ene] are within error of each other in fold induction at 10 µM: 12.8 ± 0.85 for the first, 13.2 ± 2.03 for the second.

Going from `CCCC1CC2C=CC1N(CCc1c[nH]c3ccc(F)cc13)C2` (racemic) [Compound 79, exo-2-(2-(5-fluoro-1H-indol-3-yl)ethyl)-7-propyl-2-azabicyclo[2.2.2]oct-5-ene] to `CCCCC1CC2C=CC1N(CCc1c[nH]c3ccccc13)C2` (racemic) [Compound 83, endo-2-(2-(1H-indol-3-yl)ethyl)-7-butyl-2-azabicyclo[2.2.2]oct-5-ene], the fold induction at 10 µM falls from 14.6 ± 0.21 to 12.8 ± 0.5.

First: C1=CC2C(Cc3cccnc3)CC1CN2CCc1c[nH]c2ccccc12 (racemic) [Compound 80, exo-2-(2-(1H-indol-3-yl)ethyl)-7-(pyridin-3-ylmethyl)-2-azabicyclo[2.2.2]oct-5-ene]
Second: CCC1CC2C=CC1N(CCc1cn(S(=O)(=O)c3ccc(C)cc3)c3ccccc13)C2 (racemic) [Compound 82, exo-7-ethyl-2-(2-(1-tosyl-1H-indol-3-yl)ethyl)-2-azabicyclo[2.2.2]oct-5-ene]
The fold induction at 10 µM of the first is lower: 7.02 ± 1.31 for the first, 13.6 ± 1.41 for the second.
